Assay results as given in patent US20100168085A1, “Dopamine and agonists and antagonists thereof for modulation of suppressive activity of CD4+CD25+ regulatory T cells” (YESA RESEARCH AND DEVELOPMENT CO. LTD. at the Weizmann …, priority 2003, published 2010).
Several values for one entry are separate records, joined by “and”; a condition that tells them apart may be missing. Equal entries are not always repeated. Entries after “also recorded” stand apart in the source; their conditions may differ. Marks after values point to notes of the source that are not given here. Where no end group is shown, it is not given here.

Tests used:
[1] = test system: adhesion of Treg and Teff to chondroitin sulfate proteoglycans (CSPG); experiment: T cell adhesion to CSPG; type: cell-based, mouse
Description: (xiii) T cell adhesion. Adhesion of activated CD4^+CD25^+ and CD4^+CD25^− T cells to CSPG was analyzed as previously described (23). Briefly, flat-bottomed microtiter (96-well) plates were pre-coated with CSPG (1 μg/well, 40 min, 37° C.). ^51Cr-labeled T cells were left untreated or were pre-incubated (30 min, 37° C.) with dopamine or the specified agonist or antagonist (10^−5M). The cells (10^5 cells in 100 μL of RPMI containing 0.1% BSA) were then added to the CSPG-coated wells, incubated (30 min, 37° C.), and washed. Adherent cells were lysed and the resulting supernatants were removed and counted in a γ-counter. Results were expressed as the mean percentage of the total population before adhesion of bound T cells from quadruplicate wells for each experimental group.
One of the main features of T cells is their ability to migrate to tissues in need of rescue or repair [such as diseased or damaged CNS (Hickey, 1999; Flugel et al., 2001). […] We therefore incubated Treg with dopamine for 2 h and then examined their adhesion to chondroitin sulfate proteoglycans (CSPG), extracellular matrix proteins often associated with injured tissues (Jones et al., 2003).
To verify that the effect of dopamine on adhesion of Treg is exerted through the ERK1/2 pathway, we incubated Treg with the ERK1/2 signaling pathway inhibitor PD98059 before carrying out the adhesion assay. […] Since interaction of T cells with CSPG is mediated in part by the CD44 receptor (Henke et al., 1996), and in light of the known dependence of CD44 expression on the ERK signaling pathway, it was conceivable that dopamine might affect the expression of CD44 in Treg.

Treg = Treg apoptosis (propidium iodide sub-G1, annexin V, FACS); type: cell-based, mouse; conditions: Treg incubated with compound
Description: (viii) FACS analysis of annexin V-positive regulatory T cells. PE-stained CD25^+ cells were stained for annexin V-FITC according to the manufacturer's instructions. The cells were scored as described above, and CD25^+ lymphocytes were then gated for analysis of annexin V-positive cells.
(xv) Propidium iodide staining. Cells were fixed in cold ethanol 80% and treated with RNAse. Propidium iodide was then applied, and cell samples were assessed by FACSort.

[2] = test system: mice, glutamate-induced retinal ganglion cell death; experiment: Intravitreal glutamate toxicity, retinal ganglion cell survival; type: in vivo, mouse; conditions: for Changes in neuronal survival in treated relative to untreated mice (mean±SEM): systemic injection immediately after glutamate intoxication
Description: (iii) Intravitreal glutamate injection. The right eyes of anesthetized mice were punctured with a 27-gauge needle in the upper part of the sclera, and a 10-μL Hamilton syringe with a 30-gauge needle was inserted as far as the vitreal body. A total volume of 1 μl, of L-glutamate (400 nmol) dissolved in saline was injected into the eye.
(iv) Retrograde labeling of retinal ganglion cells. Mice were anesthetized and placed in a stereotactic device. The skull was exposed and kept dry and clean. The bregma was identified and marked. The designated point of injection was at a depth of 2 mm from the brain surface, 2.92 mm behind the bregma in the anteroposterior axis and 0.5 mm lateral to the midline. A window was drilled in the scalp above the designated coordinates in the right and left hemispheres. The neurotracer dye FluoroGold (5% solution in saline; Fluorochrome, Denver, Colo.) was applied (1 μL, at a rate of 0.5 μL/min in each hemisphere) using a Hamilton syringe, and the skin over the wound was sutured.
(xxi) Assessment of mouse retinal ganglion cell survival. Mice were given a lethal dose of pentobarbitone (170 mg/kg). Their eyes were enucleated and the retinas were detached and prepared as flattened whole mounts in 4% paraformaldehyde solution. Labeled cells from 4-6 selected fields of identical size (0.7 mm^2) were counted. The selected fields were located at approximately the same distance from the optic disk (0.3 mm) to overcome the variation in RGC density as a function of distance from the optic disk. Fields were counted under the fluorescence microscope (magnification ×800) by observers blinded to the identity of the retinas. The average number of RGCs per field in each retina was calculated.
Injection of glutamate into the eyes of adult mice causes retinal ganglion cell death that is measurable 1 week after the injection (Mizrahi et al., 2002; Schori et al., 2001a; Katayama et al., 1990). We injected Balb/c mice intraperitoneally (i.p.) with the dopamine, or its specific D1-type agonist SKF-38393 (3.3 mg/kg), or its specific D1-type antagonist SCH-23390 (3 mg/kg), immediately after their exposure to glutamate toxicity. We also injected SCID Balb/c mice with SKF-38393 (3.3 mg/kg) immediately after glutamate intoxication.
Immediately after glutamate intoxication mice were systemically injected with the indicated drugs. Neuronal survival was determined ten days later (see Materials and Methods). The results are expressed by changes (in percentage) in neuronal survival in treated mice relative to untreated mice. Each value represents a mean±SEM of a group of at least 5 animals, and each experiment was performed at least twice, independently. Asterisks (***, P<0.001; **, P<0.01) indicate statistical significance of the presented data from a single experiment using a Student's T-test statistical analysis. (NT—not tested; ns—no statistical significance).

[3] = test system: mouse solid melanoma tumor cells M2R; experiment: M2R melanoma tumor development in mice; type: in vivo
Description: To verify the effect of dopamine and its related compounds on tumor growth, C57BL mice were injected with the specific D1-R agonist SKF-38393 (3.3 mg/kg) immediately after inoculation of mouse solid melanoma tumor cells M2R. The experimental group (n=10) received a single injection of SKF-38393, and a control group (n=11) was injected with PBS.
To further isolate the effect of dopamine on the immune system, C57BL mice (n=10) and SCID mice (n=8) were injected with SKF-38393 (3.3 mg/kg) immediately after injecting them with solid tumor cells M2R (FIG. 9c).

[4] = test system: phospho-ERK1/2 in Treg and Teff; experiment: ERK1/2 phosphorylation (intracellular FACS staining, Western blot); type: cell-based, mouse; conditions: activation with anti-CD3 and anti-CD28 for 20 min
Description: (ix) FACS analysis of intracellular labeling of phosphorylated form of ERK. T-cell subpopulations were fixed in 1.5% formaldehyde for 10 min at room temperature, washed, resuspended with vortexing in cold 100% methanol, and incubated for 1 h at 4° C. The cells were then washed with PBS containing 1% bovine serum albumin (BSA) and resuspended in 100 μL of PBS/BSA, and 12.5 μL of anti-phosphoERK1 & 2 (BioSource) was added for 20 min at room temperature. The cells were then washed, resuspended in PBS, and analyzed by FACSCalibur (Becton-Dickinson). As a negative control we incubated the phospho-peptide for 20 min with its antibody and then added the mixture to T cells.
(xix) Western blotting. Cells were stimulated for 20 min with anti-CD3 and anti-CD28 antibodies in the presence or absence of dopamine or SKF-38393. Cell lysates were prepared using RIPA lysis buffer (50 mM Tris, pH 8; 0.1% SDS; 0.5% deoxycholate; 1% NP40; 500 mM NaCl; 10 mM MgCl2) and were then kept on ice for 10 min before being vortexed and centrifuged. Supernatants were collected and 5× sample buffer (containing 25 mM Tris pH 6.8, 2% sodium dodecyl sulfate (SDS), 10% glycerol, 0.1% bromophenol blue, 0.5 M β-mercaptoethanol) was added prior to boiling. Cell extracts were separated by SDS-PAGE (10% polyacrylamide), and blotted onto nitrocellulose. Activated ERK1/2 was detected by probing blots with a 1:30,000 dilution of monoclonal antibody. Total ERK protein was detected by using a 1:10,000 dilution of a polyclonal rabbit antibody. The blots were developed by horseradish peroxidase-conjugated anti-mouse or anti-rabbit Fab and ECL (Amersham). Signals were quantified using NIH Image 1.62.
Treg were activated for 20 min in the presence or absence of dopamine (10^−5 M), and were then subjected to intracellular phosphoprotein staining (Perez and Nolan 2002) and analyzed by flow cytometry. […] As a measure of the background nonspecific staining of the phosphorylated ERK we used a specific peptide of phospho-ERK, which competes for binding of the antibody. The intracellular staining procedure for phospho-ERK detection by FACS was validated by the use of Teff incubated with 20 μM phorbol 12-myristate 13-acetate (PMA), known to stimulate the activity of protein kinase C (PKC) (data not shown).

[5] = test system: mice, glutamate-induced retinal ganglion cell death; experiment: Intravitreal glutamate toxicity, retinal ganglion cell survival; type: in vivo, mouse; conditions: retinas excised 7 days afterwards
[6] = test system: suppressive activity of CD4+CD25+ regulatory T cells (Treg) on Teff proliferation; experiment: Inhibition assay (co-culturing of Teff with Treg), [3H]-thymidine incorporation; type: cell-based, mouse; conditions: for Suppressive activity of Treg on Teff, kinase inhibitor treatment: activated Treg incubated with inhibitor; for Effect on ability of Treg to suppress Teff proliferation: Treg preincubated with different concentrations
Description: (xvi) Activation of CD4^+CD25^+ regulatory T cells. Purified regulatory T cells (Treg; 0.5×10^6 cells/mL) were activated in RPMI medium supplemented with L-glutamine (2 mM), 2-mercaptoethanol (5×10^−5 M), sodium pyruvate (1 mM), penicillin (100 IU/mL), streptomycin (100 μg/mL), nonessential amino acids (1 mL/100 mL), and autologous serum 2% (vol/vol) in the presence of mrIL-2 (5 ng/mL) and soluble anti-CD3 antibodies (1 ng/mL). Irradiated (2500 rad) splenocytes (1.5×10^6 cells/mL) were added to the culture. Cells were activated for 24 or 96 h. In some of the 96-h experiments, fresh dopamine was added to the culture every 24 h during activation.
(xvii) Inhibition assay (co-culturing of Teff with Treg). Naïve effector T cells (Teff; 50×10^3 cells/well) were co-cultured with decreasing numbers of activated Treg for 72 h in 96-well flat-bottomed plates in the presence of irradiated splenocytes (10^6/mL) supplemented with anti-CD3 antibodies. [^3H]-thymidine (1 μCi) was added for the last 16 h of culture. After the cells were harvested, their [^3H]-thymidine content was analyzed by the use of […].
In this experiment, we examined whether dopamine acts on Treg and alters their suppressive effect on Teff. Suppression of proliferation of Teff, assayed by [^3H]thymidine incorporation, was used as a measure of suppressive effect of Treg (Thornton and Shevach, 1998).
Shevach, 1998, 2000). Inhibition of Treg proliferation, assayed by [^3H]thymidine incorporation, can therefore be taken as a measure of the suppressive effect. We examined the ability of major neurotransmitters and neuropeptides (dopamine, norepinephrine, substance P, and serotonin) to alleviate the Treg-induced suppression of Teff in vitro. Each compound was tested at several concentrations. […] After incubating the activated Treg for 2 h with a neurotransmitter or a neuropeptide, we washed the cells and then co-cultured them with Teff.

## Oc1cc2c(cc1O)C(c1ccccc1)CNCC2 (racemic) [SKF-38393, (+/−)-1-Phenyl-2,3,4,5-tetrahydro-(1H)-3-benzazepine-7,8-diol.HC1]
[1]; dopamine 10^−9-10^−5 M, concentration-dependent, agonist 10^−5 M
  Adhesion of Treg to CSPG: mimicked
Treg
  Apoptosis, annexin V staining for phosphatidylserine: No increase in annexin V-labeled cells
[2]; Balb/c, single i.p. injection, dopamine 0.4 mg/kg, SKF-38393 3.3 mg/kg
  Increase in neuronal survival relative to PBS-treated glutamate-injected controls: 19±3.2%
[2]; SCID Balb/c, 3.3 mg/kg
  Effect on neuronal survival in immune-deficient mice: no effect; also recorded: lack of effect
[2]; SCID mice
  Changes in neuronal survival in treated relative to untreated mice (mean±SEM): 3 ± 1.8 (ns) percentage
[2]; Wild type mice
  Changes in neuronal survival in treated relative to untreated mice (mean±SEM): 19 ± 3.2** percentage
[3]; C57BL mice, single injection 3.3 mg/kg immediately after M2R inoculation
  Tumor development: significantly attenuated
[3]; SCID mice, 3.3 mg/kg immediately after M2R inoculation
  Tumor development: No effect
[4]
  Phospho-ERK1/2 in activated Treg, Western blot: reduced
[5]; 0.33 mg/kg i.v.
  Neuronal survival compared to vehicle-injected mice: neuroprotective trend, however not significant
[5]; 3.3 mg/kg i.v.
  Neuronal survival compared to vehicle-injected mice: significant increase in neuronal survival
[6]; 10^−5 M
  Effect on suppressive activity of Treg, compound alone: reproduced the dopamine effect

## COc1cccc(-c2cc(=O)c3ccccc3o2)c1N [PD98059]
[1]; Treg incubated with PD98059 before assay
  Adhesion of Treg to CSPG after ERK1/2 pathway inhibitor: significantly reduced
[6]
  Suppressive activity of Treg on Teff, kinase inhibitor treatment: significantly reduced the suppressive activity; also recorded: almost completely abolished their suppression

## CN1CCc2cc(Cl)c(O)cc2[C@@H](c2ccccc2)C1 [SCH-23390]
[2]; Balb/c, SCH-23390 3 mg/kg i.p., 3 mg/kg
  Decrease in neuronal survival relative to PBS-injected mice: 11±1.5% and 11%
[2]; Wild type mice
  Changes in neuronal survival in treated relative to untreated mice (mean±SEM): −11 ± 1.5** percentage

## O=c1c(-c2ccc(O)cc2)coc2cc(O)cc(O)c12 [genistein, 4′,5,7-trihydroxy isoflavone]
[6]
  Suppressive activity of Treg on Teff, kinase inhibitor treatment: blocked the suppressive activity
[6]; in the presence of genistein
  Proliferation of Treg themselves: underwent proliferation themselves
[6]; same concentration as used on Treg
  Proliferation of Teff: had no effect

## NC[C@H](O)c1ccc(O)c(O)c1 [norepinephrine]
[6]; 10^−5 or 10^−7 M for 2 h after 24 h activation
  Effect on suppressive activity of Treg: did not affect the suppressive activity of Treg
[6]
  Effect on ability of Treg to suppress Teff proliferation: no effect

## NCCc1c[nH]c2ccc(O)cc12 [serotonin]
[6]
  Effect on ability of Treg to suppress Teff proliferation: no effect

## substance P: a pain- and stress-related neurotransmitter (neuropeptide) (RPKPQQFFGLM-NH2; UniProt P20366 58-68, looked up)
[6]
  Effect on ability of Treg to suppress Teff proliferation: no effect
